Tests used:
[1] = Inhibition of neuraminidase in Influenza A virus A/Goose/Guangdong/SH7/2013 H5N1 using MUNANA as substrate incubated for 40 mins by […] based assay
[2] = Inhibition of neuraminidase in Influenza A virus A/Babol/36/2005 H3N2 using MUNANA as substrate incubated for 40 mins by […] based assay
in vitro [3] = conditions: human, liver microsomes
in vitro [4] = conditions: human, liver microsomes; remark: listed apart in the source
in vitro [5] = conditions: human, liver microsomes; remark: listed apart in the source
Influenza A virus [6] = assay: microbe, parasite or virus in culture; conditions: A/Goose/Jiangsu/1306/2014 H5N8, CEF, 48 h
[7] = Cytotoxicity against CEF cells incubated for 48 hrs by CCK8 assay; type: toxicity, cell-based, Gallus gallus; conditions: chicken
Influenza A virus [8] = assay: microbe, parasite or virus in culture; conditions: A/PR/8/34 H1N1, MDCK, 48 h
[9] = Cytotoxicity against MDCK cells incubated for 48 hrs by MTT assay; type: toxicity, cell-based, Canis lupus familiaris; conditions: dog
Influenza A virus [10] = assay: Antiviral activity against Influenza A virus A/WSN/67/05 H3N2 infected in MDCK cells assessed as inhibition of plaque formation measured after 2 days; conditions: A/WSN/67/05 H3N2, MDCK, 48 h
Influenza A virus [11] = assay: microbe, parasite or virus in culture; conditions: A/Goose/Guangdong/SH7/2013 H5N1, CEF, 48 h
[12] = Metabolic stability in human liver microsomes assessed as compound remaining incubated for 60 mins by LC-MS/MS analysis; type: ADME, Microsome; conditions: 1 h

Structure (SMILES): CCC(CC)O[C@@H]1C=C(C(=O)O)C[C@H](NCc2ccc(OCc3ccc(B(O)O)cc3)c(F)c2)[C@H]1NC(C)=O
- IC50 [1]: 100 nM
- IC50 [2]: 650 nM

Structure (SMILES): CCC(CC)O[C@@H]1C=C(C(=O)O)C[C@H](NCc2cccc(OCc3ccc(B(O)O)cc3)c2)[C@H]1NC(C)=O
- IC50 [1]: 1160 nM
- IC50 [2]: 3310 nM

Structure (SMILES): CCC(CC)O[C@@H]1C=C(C(=O)O)C[C@H](NCc2ccc(Oc3cccc(B(O)O)c3)cc2)[C@H]1NC(C)=O
- IC50 [1]: 140 nM
- IC50 [2]: 760 nM

Structure (SMILES): CCC(CC)O[C@@H]1C=C(C(=O)O)C[C@H](NCc2cccc(C(=O)Nc3cccc(B(O)O)c3)c2)[C@H]1NC(C)=O
- IC50 [1]: 410 nM
- IC50 [2]: 230 nM

Structure (SMILES): O=C(O)Cc1ccccc1Nc1c(Cl)cccc1Cl [DICLOFENAC]
- microsomal CLint at 2 h (in vitro [3]): 222 µL/min/mg
- CLint scaled at 2 h (in vitro [4]): 200 mL/min/kg

Structure (SMILES): CCC(CC)O[C@@H]1C=C(C(=O)O)C[C@H](NCc2cccc(OCc3ccccc3B(O)O)c2)[C@H]1NC(C)=O
- IC50 [1]: 7020 nM
- IC50 [2]: 7880 nM

Structure (SMILES): C[C@]12CC[C@H]3[C@@H](CCC4=CC(=O)CC[C@@]43C)[C@@H]1CC[C@@H]2O [TESTOSTERONE]
- remaining at 2 h (in vitro [5]): 4.1%

Structure (SMILES): CCC(CC)O[C@@H]1C=C(C(=O)O)C[C@H](NCc2ccc(OCc3ccc(B(O)O)cc3)cc2OC)[C@H]1NC(C)=O
- IC50 [1]: 1750 nM
- IC50 [2]: 510 nM

Structure (SMILES): CCC(CC)O[C@@H]1C=C(C(=O)O)C[C@H](NCc2ccc(OCc3cccc(B(O)O)c3)c(OC)c2)[C@H]1NC(C)=O
- IC50 [1]: 43500 nM
- IC50 [2]: 23700 nM

Structure (SMILES): CCC(CC)O[C@@H]1C=C(C(=O)O)C[C@H](NCc2cc(C)c(OCc3ccc(B(O)O)cc3)c(C)c2)[C@H]1NC(C)=O
- IC50 [1]: 19000 nM
- IC50 [2]: 41800 nM

Structure (SMILES): CCC(CC)O[C@@H]1C=C(C(=O)O)C[C@H](NCc2ccc(OCc3ccc(B(O)O)cc3)cc2Cl)[C@H]1NC(C)=O
- EC50 (Influenza A virus [6]): > 40000 nM
- CC50 at 48 h [7]: > 200000 nM
- EC50 (Influenza A virus [8]): 30 nM
- EC50 at 48 h [9]: > 250000 nM
- EC50 (Influenza A virus [10]): 4230 nM
- IC50 [1]: 22 nM
- IC50 [2]: 120 nM
- EC50 (Influenza A virus [11]): 3570 nM

Structure (SMILES): CC(C)NCC(O)COc1cccc2ccccc12 (stereo not drawn) [PROPRANOLOL]
- remaining at 2 h (in vitro [5]): 0.5%

Structure (SMILES): CCC(CC)O[C@@H]1C=C(C(=O)O)C[C@H](NCc2ccc(OCc3cccc(B(O)O)c3)c(C)c2)[C@H]1NC(C)=O
- IC50 [1]: 8090 nM
- IC50 [2]: 11500 nM

Structure (SMILES): CCC(CC)O[C@@H]1C=C(C(=O)O)C[C@H](NCc2cccc(OCc3cccc(B(O)O)c3)c2)[C@H]1NC(C)=O
- IC50 [1]: 4910 nM
- IC50 [2]: 4370 nM

Structure (SMILES): CCC(CC)O[C@@H]1C=C(C(=O)O)C[C@H](N)[C@H]1NC(C)=O [OSELTAMIVIR CARBOXYLATE]
- EC50 (Influenza A virus [6]): 8640 nM
- CC50 at 48 h [7]: > 200000 nM
- EC50 (Influenza A virus [8]): 56 nM
- EC50 at 48 h [9]: > 250000 nM
- EC50 (Influenza A virus [10]): 750 nM
- IC50 [1]: 61 nM
- Stability [12]: 114.6%
- IC50 [2]: 9 nM
- microsomal CLint at 2 h (in vitro [3]): 13.1 µL/min/mg
- CLint scaled at 2 h (in vitro [4]): 11.8 mL/min/kg
- EC50 (Influenza A virus [11]): 1790 nM

Structure (SMILES): CCC(CC)O[C@@H]1C=C(C(=O)O)C[C@H](NCc2ccc(OCc3cccc(B(O)O)c3)c(F)c2)[C@H]1NC(C)=O
- IC50 [1]: 73 nM
- IC50 [2]: 1830 nM

Structure (SMILES): CCC(CC)O[C@@H]1C=C(C(=O)O)C[C@H](NCc2c(C)cc(OCc3cccc(B(O)O)c3)cc2C)[C@H]1NC(C)=O
- EC50 (Influenza A virus [6]): 9120 nM
- CC50 at 48 h [7]: > 200000 nM
- EC50 (Influenza A virus [8]): 14 nM
- EC50 at 48 h [9]: > 250000 nM
- EC50 (Influenza A virus [10]): > 100000 nM
- IC50 [1]: 24 nM
- IC50 [2]: 650 nM
- EC50 (Influenza A virus [11]): 2540 nM

Structure (SMILES): CC(=O)N[C@H]1[C@H]([C@H](O)[C@H](O)CO)OC(C(=O)O)=C[C@@H]1NC(=N)N [ZANAMIVIR]
- IC50 [2]: 38 nM

Structure (SMILES): CCC(CC)O[C@@H]1C=C(C(=O)O)C[C@H](NCc2ccccc2OCc2cccc(B(O)O)c2)[C@H]1NC(C)=O
- IC50 [1]: 1480 nM
- IC50 [2]: 5080 nM

Structure (SMILES): CCC(CC)O[C@@H]1C=C(C(=O)O)C[C@H](NCc2ccc(C(=O)Nc3cccc(B(O)O)c3)cc2)[C@H]1NC(C)=O
- IC50 [1]: 1170 nM
- IC50 [2]: 17100 nM

Structure (SMILES): CCC(CC)O[C@@H]1C=C(C(=O)O)C[C@H](NCc2ccc(OCc3cccc(B(O)O)c3)c(B(O)O)c2)[C@H]1NC(C)=O
- IC50 [1]: 75 nM
- IC50 [2]: 1780 nM

Structure (SMILES): CCC(CC)O[C@@H]1C=C(C(=O)O)C[C@H](NCc2ccc(C(=O)Nc3ccc(B(O)O)cc3)cc2)[C@H]1NC(C)=O
- IC50 [1]: 970 nM
- IC50 [2]: 1640 nM

Structure (SMILES): CCC(CC)O[C@@H]1C=C(C(=O)O)C[C@H](NCc2ccc(OCc3ccc(B(O)O)cc3)cc2C)[C@H]1NC(C)=O
- EC50 (Influenza A virus [6]): 3550 nM
- CC50 at 48 h [7]: > 200000 nM
- EC50 (Influenza A virus [8]): 11 nM
- EC50 at 48 h [9]: > 250000 nM
- EC50 (Influenza A virus [10]): 10600 nM
- IC50 [1]: 74 nM
- IC50 [2]: 110 nM
- EC50 (Influenza A virus [11]): 6390 nM

Structure (SMILES): CCC(CC)O[C@@H]1C=C(C(=O)O)C[C@H](NCc2ccc(Oc3ccc(B(O)O)cc3)cc2)[C@H]1NC(C)=O
- IC50 [1]: 36 nM
- IC50 [2]: 1450 nM

Structure (SMILES): CCC(CC)O[C@@H]1C=C(C(=O)O)C[C@H](NCc2ccc(OCc3cccc(B(O)O)c3)cc2OC)[C@H]1NC(C)=O
- IC50 [1]: 790 nM
- IC50 [2]: 950 nM

Structure (SMILES): CCC(CC)O[C@@H]1C=C(C(=O)O)C[C@H](NCc2ccc(-c3cccs3)cc2OC)[C@H]1NC(C)=O
- IC50 [1]: 1650 nM
- IC50 [2]: 2100 nM

Structure (SMILES): CCC(CC)O[C@@H]1C=C(C(=O)O)C[C@H](NCc2ccc(OCc3ccc(B(O)O)cc3)c(Cl)c2)[C@H]1NC(C)=O
- IC50 [1]: 3950 nM
- IC50 [2]: 7170 nM

Structure (SMILES): CCC(CC)O[C@@H]1C=C(C(=O)O)C[C@H](NCc2ccc(OCc3ccc(B(O)O)cc3)cc2F)[C@H]1NC(C)=O
- EC50 (Influenza A virus [6]): 3970 nM
- CC50 at 48 h [7]: > 500000 nM
- EC50 (Influenza A virus [8]): 29 nM
- EC50 at 48 h [9]: > 250000 nM
- EC50 (Influenza A virus [10]): 18500 nM
- IC50 [1]: 87 nM
- IC50 [2]: 400 nM
- EC50 (Influenza A virus [11]): 1590 nM

Structure (SMILES): CCC(CC)O[C@@H]1C=C(C(=O)O)C[C@H](NCc2ccc(OCc3ccc(B(O)O)cc3)cc2Br)[C@H]1NC(C)=O
- IC50 [1]: 71 nM
- IC50 [2]: 340 nM

Structure (SMILES): CCC(CC)O[C@@H]1C=C(C(=O)O)C[C@H](NCc2c(C)cc(OCc3ccc(B(O)O)cc3)cc2C)[C@H]1NC(C)=O
- IC50 [1]: 270 nM
- IC50 [2]: 740 nM

Structure (SMILES): CCC(CC)O[C@@H]1C=C(C(=O)O)C[C@H](NCc2ccc(OCc3cccc(B(O)O)c3)c(Br)c2)[C@H]1NC(C)=O
- IC50 [1]: 6930 nM
- IC50 [2]: 14100 nM

Structure (SMILES): CCC(CC)O[C@@H]1C=C(C(=O)O)C[C@H](NCc2cc(C)c(OCc3cccc(B(O)O)c3)c(C)c2)[C@H]1NC(C)=O
- IC50 [1]: 32300 nM
- IC50 [2]: 8790 nM

Structure (SMILES): CCC(CC)O[C@@H]1C=C(C(=O)O)C[C@H](NCc2ccc(-c3ccsc3)cc2OC)[C@H]1NC(C)=O
- IC50 [1]: 1500 nM
- IC50 [2]: 8460 nM

Structure (SMILES): CCC(CC)O[C@@H]1C=C(C(=O)O)C[C@H](NCc2ccc(OCc3cccc(B(O)O)c3)cc2F)[C@H]1NC(C)=O
- EC50 (Influenza A virus [6]): 6880 nM
- CC50 at 48 h [7]: 170000 nM
- EC50 (Influenza A virus [8]): 26 nM
- EC50 at 48 h [9]: > 250000 nM
- EC50 (Influenza A virus [10]): > 100000 nM
- IC50 [1]: 38 nM
- IC50 [2]: 1430 nM
- EC50 (Influenza A virus [11]): 6270 nM

Structure (SMILES): CCC(CC)O[C@@H]1C=C(C(=O)O)C[C@H](NCc2ccccc2OCc2ccc(B(O)O)cc2)[C@H]1NC(C)=O
- IC50 [1]: 1290 nM
- IC50 [2]: 8480 nM

Structure (SMILES): CCC(CC)O[C@@H]1C=C(C(=O)O)C[C@H](NCc2cccc(C(=O)Nc3ccc(B(O)O)cc3)c2)[C@H]1NC(C)=O
- IC50 [1]: 1050 nM
- IC50 [2]: 6660 nM

Structure (SMILES): CCC(CC)O[C@@H]1C=C(C(=O)O)C[C@H](NCc2ccc(OCc3cccc(B(O)O)c3)c(Cl)c2)[C@H]1NC(C)=O
- IC50 [1]: 2780 nM
- IC50 [2]: 6660 nM

Structure (SMILES): CCC(CC)O[C@@H]1C=C(C(=O)O)C[C@H](NCc2ccc(OCc3ccc(B(O)O)cc3)c(C)c2)[C@H]1NC(C)=O
- IC50 [1]: 8060 nM
- IC50 [2]: 16700 nM

Structure (SMILES): CCC(CC)O[C@@H]1C=C(C(=O)O)C[C@H](NCc2ccc(OCc3ccc(B(O)O)cc3)c(Br)c2)[C@H]1NC(C)=O
- IC50 [1]: 933000 nM
- IC50 [2]: 17100 nM

Structure (SMILES): CCC(CC)O[C@@H]1C=C(C(=O)O)C[C@H](NCc2ccc(OCc3ccc(B(O)O)cc3)c(OC)c2)[C@H]1NC(C)=O
- IC50 [1]: 51800 nM
- IC50 [2]: 28600 nM

Structure (SMILES): CCC(CC)O[C@@H]1C=C(C(=O)O)C[C@H](NCc2ccc(OCc3cccc(B(O)O)c3)cc2Br)[C@H]1NC(C)=O
- IC50 [1]: 81 nM
- IC50 [2]: 470 nM

Source: ChEMBL document CHEMBL6078687 (J Med Chem, 2024)
